One data set is described as follows: physchem. The data set is classed as physicochemical.
Conditions: not given
The procedure, abridged:
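Following EEC Directive 79/831 Annex V.A8, logP is obtained from retention on a 1.8 micron C18 column (50×4.6 mm) at 55 °C and 2.0 ml/min. Elution ran 10→95% acetonitrile (0.1% formic acid) against water (0.09% formic acid) in 4.25 min, held 1.25 min; mass detection used.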
`O=C(NC1CC1)c1cc(NC(=O)c2cnc(C(F)(F)C(F)(F)F)nc2C2CC2)ccc1Cl` [Ib-30]: the logP is listed as 3.28^a).

As to `Cn1nc(C(F)(F)F)c(I)c1C(=O)Nc1ccc(Cl)c(C(=O)NC2CC2)c1` [Ik-182], the logP is given as 2.70^a).

In the case of `CCN(C(=O)c1c(C(F)(F)F)c(C(F)(F)C(F)(F)F)nn1C)c1ccc(Cl)c(C(=O)NCC(F)(F)F)c1` [Ik-138], the logP is listed as 3.81^a).

For the compound `Cn1nc(C(F)(F)C(F)(F)F)c(C(F)(F)F)c1C(=O)Nc1ccc(OC(F)F)c(C(=O)O)c1` [Ik-104], the logP is 3.23^a).

Regarding `CSc1c(F)cc(NC(=O)c2c(C(F)(F)F)c(C(F)(F)C(F)(F)F)nn2C)cc1C(=O)NC1CC1` [Ik-191], the logP is 3.57^a).

On to `O=C(NC1CC1)c1cc(NC(=O)c2cnc(C(F)(F)C(F)(F)F)nc2C(F)(F)F)ccc1Cl` [Ib-7], for which the logP was 3.20^a).

As to `C=CCNC(=O)c1cc(NC(=O)c2c(C(F)(F)F)c(C(F)(F)C(F)(F)F)nn2C)ncc1Br` [Ik-315], the logP is reported as 3.42^a).

Turning to `Cn1nc(OCC(F)(F)F)c(I)c1C(=O)Nc1ccc(Cl)c(C(=O)NC2CC2)c1` [Ik-245], the logP is on record as 2.85^a).

On to `CCSCC(C)NC(=O)c1cc(NC(=O)c2c(C(F)(F)F)c(C(F)(F)C(F)(F)F)nn2C)ccc1Cl` (stereo not drawn) [Ik-89], for which the logP was 4.09^a).

Consider `O=C(NCc1ccccc1)c1cc(NC(=O)c2cnc(C(F)(F)C(F)(F)C(F)(F)F)nc2C(F)(F)F)ccc1Cl` [Ib-18], for which the logP is recorded as 4.13^a).

As for `Cn1nc(OCC(F)(F)F)cc1C(=O)Nc1ccc(Cl)c(C(=O)NCC(F)(F)F)c1` [Ik-246], the logP is recorded as 2.92^a).

As to `Cn1nc(C(F)(F)C(F)(F)F)c(C(F)(F)F)c1C(=O)Nc1ccc(I)c(C(=O)NC2CC2)c1` [Ik-183], the logP is 3.45^a).

In the case of `Cn1nc(C(F)(F)C(F)(F)F)c(C(F)(F)F)c1C(=O)Nc1cc(Br)c(I)c(C(=O)NC2CC2)c1` [Ik-210], the logP was 3.92^a).

As for `CCC(C)NC(=O)c1cc(NC(=O)c2c(C(F)(F)F)c(C(F)(F)C(F)(F)F)nn2C)ccc1Cl` (stereo not drawn) [Ik-91], the logP is listed as 3.87^a).

For the compound `Cn1nc(OC(F)F)c(Cl)c1C(=O)Nc1ccc(Cl)c(C(=O)NCC(F)(F)F)c1` [Ik-239], the logP is given as 2.89^a).

As to `CC(NC(=O)c1cc(NC(=O)c2c(Cl)c(C(F)(F)F)nn2C)ccc1Cl)C(F)(F)F` (stereo not drawn) [Ik-152], the logP was 3.44^a).

As to `O=C(NCC(F)(F)F)c1cc(NC(=O)c2cnc(C(F)(F)C(F)(F)F)nc2C(F)F)ccc1Cl` [Ib-28], the logP is 3.27^a).

Turning to `Cn1nc(-c2cc(C(F)(F)F)cc(C(F)(F)F)c2)c(C(F)(F)F)c1C(=O)Nc1ccc(Cl)c(C(=O)NC2CC2)c1` [Ik-259], the logP was 4.19^a).

For the compound `Cn1nc(C(F)(F)C(F)(F)F)c(C(F)(F)F)c1C(=O)Nc1cc(F)c(F)c(C(=O)NCc2ccccc2)c1` [Ik-97], the logP is on record as 4.19^a).

`Cn1nc(-c2ccc(Cl)cc2Cl)c(Br)c1C(=O)Nc1ccc(Cl)c(C(=O)NCC(F)(F)F)c1` [Ik-254]: the logP is 4.04^a).

As to `Cn1nc(C(F)(F)F)c(Cl)c1C(=O)Nc1ccc(Cl)c(C(=O)NCC=CCl)c1` [Ik-19], the logP is on record as 3.22^a).

As to `Cn1nc(C(F)(F)C(F)(F)F)c(C(F)(F)F)c1C(=O)Nc1cc(Br)c(Cl)c(C(=O)NC2CC2)c1` [Ik-7], the logP was 3.81^a).

On to `Cn1nc(C(F)(F)C(F)(F)F)c(C(F)(F)F)c1C(=O)Nc1ccc(Cl)c(C(=O)NCc2ccc(F)cn2)c1` [Ik-80], for which the logP is listed as 4.75^a).

On to `CC(C)NC(=O)c1cc(NC(=O)c2c(C(F)(F)F)c(C(F)(F)C(F)(F)F)nn2C)ccc1Cl` [Ik-90], for which the logP was 3.60^a).

Take `Cn1nc(C(F)(F)C(F)(F)F)c(C(F)(F)F)c1C(=O)Nc1ccc(Cl)c(C(N)=O)c1` [Ik-163]: the logP is 2.83^a).

In the case of `CNC(=O)c1cc(NC(=O)c2ccc(C(F)(F)F)nc2Cl)ccc1Cl` [Ir-6], the logP is 2.16^a).

`Cn1nc(C(F)(F)C(F)(F)F)c(C(F)(F)F)c1C(=O)Nc1cc(F)c(Cl)c(C(=O)NCC(F)(F)F)c1` [Ik-190]: the logP is given as 3.91^a).

For `O=C(Nc1cc(Br)c(Cl)c(C(=O)NC2CC2)c1)c1cnc(C(F)(F)C(F)(F)F)nc1C(F)(F)F` [Ib-36], the logP is reported as 3.62^a).

Take `Cn1nc(C(F)(F)C(F)(F)F)c(C(F)(F)F)c1C(=O)Nc1cc(C(=O)NCC(F)(F)F)c(Cl)cc1F` [Ik-144]: the logP is reported as 3.73^a).

As to `COc1ccc(NC(=O)c2c(C(F)(F)F)c(C(F)(F)C(F)(F)F)nn2C)cc1C(=O)NC1CC1` [Ik-185], the logP is 3.32^a).

Consider `Cn1nc(C(F)(F)C(F)(F)F)cc1C(=O)Nc1ccc(Cl)c(C(=O)NC2CC2)c1` [Ik-17], for which the logP was 2.94^a).

As to `O=C(NC1CC1)c1cc(NC(=O)c2cnc(C(F)(F)C(F)(F)C(F)(F)F)nc2C(F)(F)F)ccc1Cl` [Ib-15], the logP is recorded as 3.56^a).

Turning to `Cn1nc(C(F)(F)F)cc1C(=O)Nc1ccc(Cl)c(C(=O)NC2CC2)c1` [Ik-71], the logP is listed as 2.48^a).

As to `O=C(NCC=CCl)c1cc(NC(=O)c2ncc(C(F)(F)F)cc2Cl)ccc1Cl` [Ii-4], the logP is reported as 2.93^a).

In the case of `O=C(NC1CC1)c1cc(NC(=O)c2[nH]nc(C(F)(F)C(F)(F)F)c2C(F)(F)F)ccc1Cl` [Ik-179], the logP was 2.95^a).

Still in this data set, the particulars now being: HPLC method a), eluent acetonitrile/water with formic acid; read-out: logP.
On to `Cn1nc(C(F)(F)C(F)(F)F)c(C(F)(F)F)c1C(=O)O` [1-Methyl-3-pentafluoroethyl-4-trifluoromethyl-1H-pyrazole-5-carboxylic acid], for which the chromatographic logP came out at 1.86.

The data set is the same for the next values; noted with them: HPLC phase inversion (reversed-phase) C18 column, HPLC method a), eluent acetonitrile/water with formic acid; read-out: logP.
Regarding `Cn1nc(C(F)(F)C(F)(F)F)c(C(F)(F)F)c1C(=O)Nc1cnc(Cl)c(C(=O)O)c1` [Ik-131, 2-Chloro-5-({[1-methyl-3-(pentafluoroethyl)-4-(trifluoromethyl)-1H-pyrazol-5-yl]carbonyl}amino)nicotinic acid], the chromatographic logP turned out to be 2.27.

Take `O=C(NCC(F)(F)F)c1cc(NC(=O)c2[nH]nc(C(F)(F)C(F)(F)F)c2C(F)(F)F)ccc1Cl` [Ik-124, N-{4-Chloro-3-[(2,2,2-trifluoroethyl)carbamoyl]phenyl}-3-(pentafluoroethyl)-4-(trifluoromethyl)-1H-pyrazole-5-carboxamide]: the chromatographic logP is 3.26.

As to `CCOC(=O)c1cc(NC(=O)c2nc(C)nc(C(F)(F)C(F)(F)F)c2C(F)(F)F)ccc1Cl` [ethyl 2-chloro-5-({[2-methyl-6-(pentafluoroethyl)-5-(trifluoromethyl)pyrimidin-4-yl]-carbonyl}amino)benzoate], the chromatographic logP came to 4.55.

On to `Cn1nc(C(F)(F)C(F)(F)F)cc1C(=O)O` [1-Methyl-3-pentafluoroethyl-1H-pyrazole-5-carboxylic acid], for which the chromatographic logP amounted to 2.08.

Turning to `COC(=O)c1c(Cl)cnc(N)c1Cl` [methyl 2-amino-3,5-dichloroisonicotinate], the chromatographic logP came to 1.75.

As to `Cn1nc(C(F)(F)C(F)(F)F)c(C(F)(F)F)c1C(=O)Nc1ccc(Cl)c(C(=O)O)c1` [Ik-2, 2-Chloro-5-({[1-methyl-3-(pentafluoroethyl)-4-(trifluoromethyl)-1H-pyrazol-5-yl]carbonyl}amino)benzoic acid], the chromatographic logP was 3.22.

Still in this data set, the particulars now being: HPLC phase inversion (reversed-phase) C18 column, HPLC on C18 phase inversion column, method a); read-out: logP.
Regarding `Cn1nc(C(F)(F)C(F)(F)F)c(C(F)(F)F)c1C(=O)Nc1cnc(Cl)c(C(=O)O)c1` [Ik-131, 2-Chloro-5-({[1-methyl-3-(pentafluoroethyl)-4-(trifluoromethyl)-1H-pyrazol-5-yl]carbonyl}amino)nicotinic acid], the chromatographic logP is 2.77.

Take `O=C(NCC(F)(F)F)c1cc(NC(=O)c2[nH]nc(C(F)(F)C(F)(F)F)c2C(F)(F)F)ccc1Cl` [Ik-124, N-{4-Chloro-3-[(2,2,2-trifluoroethyl)carbamoyl]phenyl}-3-(pentafluoroethyl)-4-(trifluoromethyl)-1H-pyrazole-5-carboxamide]: the chromatographic logP worked out at 3.26.

The data set is the same for the next values; noted with them: HPLC phase inversion (reversed-phase) C18 column, HPLC, method a); read-out: logP.
On to `Cn1nc(C(F)(F)C(F)(F)F)c(C(F)(F)F)c1C(=O)Nc1ccc(Cl)c(C(=O)O)c1` [Ik-2, 2-Chloro-5-({[1-methyl-3-(pentafluoroethyl)-4-(trifluoromethyl)-1H-pyrazol-5-yl]carbonyl}amino)benzoic acid], for which the chromatographic logP turned out to be 3.22.
